Test results: patent publication US20240150377A1, “MODULATORS OF CYSTIC FIBROSIS TRANSMEMBRANE CONDUCTANCE REGULATOR” (VERTEX PHARMACEUTICALS INCORPORATED, priority 2020, published 2024)
Read-outs that look alike come from different tables or passages of the source.

Molecular target: CFTR (Homo sapiens, UniProt P13569)
Experiment: Membrane potential dye, Enteroid Assay A
Type: cell-based
Details: for Ent. A Max Activity: chloride transport as % of triple combination control (Enteroid Assay A); for EC50: human enteroid cells, 18-24 hours, acute 10 μM forskolin and 300 nM ivacaftor, read-out: Ent. A EC50
Summary of the method: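 Human intestinal enteroids incubated 18-24 h at 37 °C with test compound, then loaded with 20 μM methyl oxonol (with CaCC inhibitors). Chloride transport triggered in chloride-free buffer with 10 μM forskolin, 100 μM IBMX, 300 nM Compound III; fluorescence read 15 min, expressed as % of a triple-combination corrector/potentiator control.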

Sequence of CFTR (P13569 with tags, fused parts or gaps DEL508-508): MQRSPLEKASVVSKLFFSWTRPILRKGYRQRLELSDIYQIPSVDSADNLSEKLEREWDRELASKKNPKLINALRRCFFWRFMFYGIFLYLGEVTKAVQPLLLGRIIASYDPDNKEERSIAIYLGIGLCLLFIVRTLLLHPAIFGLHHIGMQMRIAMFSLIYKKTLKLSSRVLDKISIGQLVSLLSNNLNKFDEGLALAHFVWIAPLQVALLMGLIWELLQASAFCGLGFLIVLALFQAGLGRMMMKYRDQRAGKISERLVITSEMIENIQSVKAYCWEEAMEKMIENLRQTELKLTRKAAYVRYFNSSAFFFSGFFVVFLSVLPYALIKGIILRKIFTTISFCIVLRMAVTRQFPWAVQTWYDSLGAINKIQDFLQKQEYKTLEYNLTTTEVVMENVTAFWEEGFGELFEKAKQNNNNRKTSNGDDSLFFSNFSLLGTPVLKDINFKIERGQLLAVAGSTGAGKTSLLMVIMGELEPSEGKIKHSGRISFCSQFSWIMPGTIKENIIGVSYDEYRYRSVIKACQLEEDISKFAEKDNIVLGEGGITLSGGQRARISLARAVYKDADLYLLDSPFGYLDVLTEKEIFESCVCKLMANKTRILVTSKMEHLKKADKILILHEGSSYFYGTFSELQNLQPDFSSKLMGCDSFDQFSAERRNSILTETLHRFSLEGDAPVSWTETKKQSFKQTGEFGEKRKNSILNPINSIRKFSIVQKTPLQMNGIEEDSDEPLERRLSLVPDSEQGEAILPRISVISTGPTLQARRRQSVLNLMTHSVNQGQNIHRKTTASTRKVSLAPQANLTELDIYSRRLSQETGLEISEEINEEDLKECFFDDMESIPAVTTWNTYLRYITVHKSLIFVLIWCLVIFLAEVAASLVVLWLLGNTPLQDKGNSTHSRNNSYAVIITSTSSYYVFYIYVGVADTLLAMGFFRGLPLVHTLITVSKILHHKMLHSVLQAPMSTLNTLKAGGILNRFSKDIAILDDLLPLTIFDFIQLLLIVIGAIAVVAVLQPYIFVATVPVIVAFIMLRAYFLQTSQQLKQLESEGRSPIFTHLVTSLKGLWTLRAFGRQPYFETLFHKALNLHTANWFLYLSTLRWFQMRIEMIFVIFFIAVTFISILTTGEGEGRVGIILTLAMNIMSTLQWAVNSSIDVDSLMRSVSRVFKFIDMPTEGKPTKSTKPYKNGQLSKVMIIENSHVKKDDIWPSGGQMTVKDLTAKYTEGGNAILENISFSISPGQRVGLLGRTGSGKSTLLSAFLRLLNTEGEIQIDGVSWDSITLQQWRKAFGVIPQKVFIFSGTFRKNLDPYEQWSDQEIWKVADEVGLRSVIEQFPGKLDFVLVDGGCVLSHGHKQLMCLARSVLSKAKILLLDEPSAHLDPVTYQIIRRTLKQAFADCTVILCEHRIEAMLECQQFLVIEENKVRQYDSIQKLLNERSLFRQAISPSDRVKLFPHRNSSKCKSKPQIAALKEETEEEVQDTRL

| Structure (SMILES) | Ent. A Max Activity (Table 7) | EC50 (Table 7) [µM] | Ent. A Max Activity (Table 6) | EC50 (Table 6) [µM] |
| --- | --- | --- | --- | --- |
| Cc1cccc(C)c1-c1cc2nc(n1)NS(=O)(=O)c1cccc(c1)C(=O)N(Cc1ccccc1)C(CCC1(C(F)(F)F)CC1)CO2 (stereo not drawn) [Compound 689] | – | – | +++ (+++ is >60%) | < 1 |
| Cc1cccc(C)c1-c1cc2nc(n1)NS(=O)(=O)c1cccc(c1)C(=O)N(C)C[C@H](c1cccc(C(C)(C)C)c1)O2 (single isomer, unassigned) [Compound 15, 10-(3-tert-butylphenyl)-6-(2,6-dimethylphenyl)-12-methyl-2,2-dioxo-9-oxa-2λ^6-thia-3,5,12,19-tetrazatricyclo[12.3.1.14,8]nonadeca-1(18),4(19),5,7,14,16-hexaen-13-one] | + (+ is <30%) | 3 to 30 | – | – |
| Cc1cccc(C)c1-c1cc2nc(n1)NS(=O)(=O)c1cccc(c1)C(=O)N(C)CC(c1ccc(C(N)=O)cc1)O2 (stereo not drawn) [Compound 666] | – | – | + (+ is <30%) | – |
| Cc1cccc(C)c1-c1cc2nc(n1)NS(=O)(=O)c1cccc(c1)C(=O)N(C)C[C@H](c1ccccc1)O2 [Compound 672] | – | – | ++ (++ is 30-60%) | < 1 |
| Cc1cccc(C)c1-c1cc2nc(n1)NS(=O)(=O)c1cccc(c1)CN(C(=O)CC1CCOCC1)[C@H](CC(C)C)CO2 [Compound 45, (11R)-6-(2,6-Dimethylphenyl)-11-(2-methylpropyl)-12-[2-(oxan-4-yl)acetyl]-9-oxa-2λ^6-thia-3,5,12,19-tetraazatricyclo[12.3.1.14,8]nonadeca-1(17),4,6,8(19),14(18),15-hexaene-2,2-dione] | + (+ is <30%) | – | – | – |
| COC(=O)CCCN1C(=O)c2cccc(c2)S(=O)(=O)Nc2nc(cc(-c3c(C)cccc3C)n2)OC[C@H]1CC(C)C [Compound 367] | – | – | +++ (+++ is >60%) | < 1 |
| Cc1cccc(C)c1-c1cc2nc(n1)NS(=O)(=O)c1cccc(c1)CN(C(=O)CC1CCN(C)CC1)[C@H](CC(C)C)CO2 [Compound 1048] | +++ (+++ is >60%) | 1 to 3 | – | – |
| CCc1nccc(CN2Cc3cccc(c3)S(=O)(=O)Nc3nc(cc(-c4c(C)cccc4C)n3)OC[C@H]2CC(C)C)n1 [Compound 1035] | ++ (++ is 30-60%) | < 1 | – | – |
| Cc1cccc(C)c1-c1cc2nc(n1)NS(=O)(=O)c1cccc(c1)CN(CCc1ccccc1)[C@H](CC(C)C)CO2 [Compound 1040] | ++ (++ is 30-60%) | < 1 | – | – |
| Cc1cccc(C)c1-c1cc2nc(n1)NS(=O)(=O)c1cccc(c1)C(=O)N(CCC1CCOCC1)[C@H](CC1(C(F)(F)F)CC1)CO2 [Compound 680] | + (+ is <30%) | < 1 | – | – |

Second part, the compound after the results:

| Ent. A Max Activity (Table 7) | EC50 (Table 7) [µM] | Ent. A Max Activity (Table 6) | EC50 (Table 6) [µM] | Structure (SMILES) |
| --- | --- | --- | --- | --- |
| +++ (+++ is >60%) | < 1 | – | – | Cc1cccc(C)c1-c1cc2nc(n1)NS(=O)(=O)c1cccc(c1)C(=O)N(Cc1ccc(N3CCC(F)CC3)nc1)[C@H](CC(C)C)CO2 [Compound 973] |
| – | – | +++ (+++ is >60%) | < 1 | Cc1cccc(C)c1-c1cc2nc(n1)NS(=O)(=O)c1cccc(c1)C(=O)N(CCCn1cccn1)[C@H](CC(C)C)CO2 [Compound 354] |
| +++ (+++ is >60%) | < 1 | – | – | Cc1cccc(C)c1-c1cc2nc(n1)NS(=O)(=O)c1cccc(c1)C(=O)N(Cc1ccc(N3CCC[C@@H]3C)nc1)[C@H](CC(C)C)CO2 [Compound 960] |
| +++ (+++ is >60%) | < 1 | – | – | Cc1cccc(C)c1-c1cc2nc(n1)NS(=O)(=O)c1cccc(c1)C(=O)N(Cc1ccc(N3CCC(C(C)(C)C)CC3)nc1)[C@H](CC(C)C)CO2 [Compound 941] |
| +++ (+++ is >60%) | < 1 | – | – | Cc1cccc(C)c1-c1cc2nc(n1)NS(=O)(=O)c1cccc(c1)C(=O)N(Cc1ccc(N3CCC(C)(C)CC3)nc1)[C@H](CC(C)C)CO2 [Compound 940] |
| +++ (+++ is >60%) | < 1 | – | – | COC1CCN(c2ccc(CN3C(=O)c4cccc(c4)S(=O)(=O)Nc4nc(cc(-c5c(C)cccc5C)n4)OC[C@H]3CC(C)C)cn2)CC1 [Compound 971] |
